Laboratory results as given in PubChem BioAssay (NCI).
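Results reflect a 48-hour exposure of cells in 96-well plates to compound at five concentrations. TGI denotes the concentration required for complete inhibition of growth.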

Experiments:
Assay in all cases: inhibition of tumour cell growth, NCI panel, 48 h
[1] = system: 786-0 renal
[2] = system: A498 renal
[3] = system: A549 NSCLC
[4] = system: ACHN renal
[5] = system: BT-549 breast
[6] = system: CAKI-1 renal
[7] = system: DU-145 prostate
[8] = system: EKVX NSCLC
[9] = system: HCC-2998 colon
[10] = system: HCT-116 colon
[11] = system: HCT-15 colon
[12] = system: HOP-62 NSCLC
[13] = system: HOP-92 NSCLC
[14] = system: HS 578T breast
[15] = system: HT29 colon
[16] = system: IGROV1 ovarian
[17] = system: KM12 colon
[18] = system: LOX IMVI melanoma
[19] = system: M14 melanoma
[20] = system: MALME-3M melanoma
[21] = system: MCF7 breast
[22] = system: MDA-MB-231 breast
[23] = system: MDA-MB-435
[24] = system: MDA-N
[25] = system: MOLT-4 leukemia
[26] = system: NCI-H226 lung
[27] = system: NCI-H23 lung
[28] = system: NCI-H460 lung
[29] = system: NCI-H522 lung
[30] = system: NCI/ADR-RES ovarian
[31] = system: OVCAR-3 ovarian
[32] = system: OVCAR-4 ovarian
[33] = system: OVCAR-5 ovarian
[34] = system: OVCAR-8 ovarian
[35] = system: PC-3 prostate
[36] = system: RPMI-8226 leukemia
[37] = system: SF-268 CNS
[38] = system: SF-295 CNS
[39] = system: SF-539 CNS
[40] = system: SK-MEL-2 melanoma
[41] = system: SK-MEL-28 melanoma
[42] = system: SK-MEL-5 melanoma
[43] = system: SK-OV-3 ovarian
[44] = system: SN12C renal
[45] = system: SNB-19 CNS
[46] = system: SNB-75 CNS
[47] = system: SR leukemia
[48] = system: SW-620 colon
[49] = system: T-47D breast
[50] = system: TK-10 renal
[51] = system: U251 CNS
[52] = system: UACC-257 melanoma
[53] = system: UACC-62 melanoma
[54] = system: UO-31 renal
[55] = system: CCRF-CEM leukemia
[56] = system: COLO 205 colon
[57] = system: K-562 leukemia
[58] = system: RXF 393 renal

Measured: TGI

Cc1cc2c(cc1N)C(C)C1(CCC(=O)N2Cc2ccccc2)OCCO1 (stereo unspecified)
not listed: [55] | [56] | [57] | [58]
> 100 µM: all other assays above

O=C1c2ccccc2-c2c1c(-c1cccc(Br)c1)nc1ccc3ccccc3c21
not listed: [13] | [16] | [29] | [42] | [47] | [50]
> 100 µM: all other assays above
